Reference: patent publication US9988375B2, “Inhibitors of lysine gingipain” (priority 2014, dated 2018)
“Also recorded” adds a separate entry of the source. Where two headings read alike, the source gives them in different places.

Key:
trypsin [1] = target: T1, trypsin (Homo sapiens (Human), UniProt P07477); settings: cited from earlier work
Kgp = Kgp (Porphyromonas gingivalis (strain ATCC 33277 / DSM 20709 / CIP 103683 / JCM 12257 / NCTC 11834 / 2561), UniProt B2RLK2); settings: cited from earlier work
[2] = tested on: differentiated SHSY-5Y cells; assay: Gingipain-induced death of differentiated SH-SY5Y cells; format: cell-based; settings: 100 nM Kgp and/or RgpB for 24 hours
Procedure: SH-SY5Y neuroblastoma cells were cultured and differentiated in the presence of 5 uM retinoic acid based on established methods [Saberi S., et al. Cell Mol Neurobiol 2013. 33: 747-751]. Differentiation into neuronal cells was verified by observation of neurite outgrowth. The differentiated cells were exposed to 100 nM Kgp and/or RgpB for 24 hours, in the presence or absence of Kgp inhibitors. Results were recorded using a digital microscope camera (FIG. 1C, FIG. 2C). Gingipains are toxic to cells while COR compounds prevent the cytotoxicity.

lysine gingipain (Kgp) = lysine gingipain (Kgp) (Porphyromonas gingivalis (strain ATCC 33277 / DSM 20709 / CIP 103683 / JCM 12257 / NCTC 11834 / 2561), UniProt B2RLK2); assay: Lysine gingipain (Kgp) fluorogenic inhibition assay; format: biochemical
Procedure: The capacities of compounds of the present invention to inhibit the activity of lysine gingipain were measured in a fluorogenic assay similar to those described in Barret Biochemical Journal. 1980, 187(3), 909. The specific assay conditions were as follows. Buffer: pH=7.5, 100 mM Tris-HCl, 75 mM NaCl, 2.5 mM CaCl2, 10 mM cysteine, 1% DMSO after all additions. Protein: 0.1 nM Kgp, isolated from culture of Porphyromonas gingivalis, as described in Pike et al. J. Biol. Chem. 1994, 269(1), 406, and Potempa and Nguyen. Current Protocols in Protein Scienc. 2007, 21.20.1-21.20.27. Fluorogenic substrate: 10 uM Z-His-Glu-Lys-MCA. Time=90 minutes. Temperature=37° C. Each compound: 10 concentrations, starting at either 100 uM or 100 nM, with lower concentrations generated by serial 3-fold dilutions. By testing a range of concentrations for each compound, the concentration required to inhibit the activity of lysine gingipain by 50% (the “IC50”) was determined. Under the described assay conditions, signal-to-noise was excellent, and Z factor was greater than 0.6.
(§1) The inhibitory of activity of compounds described herein was tested against Kgp, RgpB, and trypsin.

trypsin [3] = target: T1, trypsin; assay: Trypsin inhibition; format: biochemical
Procedure: as §1

abeta 42 = assay: Brain abeta 42 ELISA in mice orally infected with P. gingivalis; format: in vivo, Balb/cJ mice; settings: subcutaneously three times per day on days 21-42
Source text: Female Balb/cJ mice were obtained from Taconic and allowed to acclimate. 43-44 week old mice were challenged orally with 10^9 CFU W83 P. gingivalis or a P. gingivalis strain lacking expression of Kgp every other day for 42 days. Compound 2 or vehicle (2% DMSO) was given subcutaneously three times per day on days 21-42. On day 42 mice were sacrificed and the brain removed and frozen. A sample including hippocampal tissue was lysed in RIPA buffer with protease inhibitors and analyzed for Abeta42 expression with the Amyloid beta 42 ELISA Kit, Mouse (Life Technologies).

SHSY5Y cells = assay: P. gingivalis-induced toxicity in SHSY5Y cells in vitro; format: cell-based; settings: compared to the antibiotic moxifloxacin
RgpB = RgpB (Porphyromonas gingivalis (strain ATCC BAA-308 / W83), UniProt P95493); assay: RgpB inhibition; format: biochemical
Procedure: as §1

[4] = 0.1 nM Kgp, 10 uM Z-His-Glu-Lys-MCA, 90 minutes, 37° C., pH 7.5, read-out: Kgp IC50 average

In the case of `NCCC[C@H](NC(=O)C1CCCN(C(=O)CCc2ccccc2)C1)C(=O)c1nc2ccccc2s1` (mixture of isomers) [Compound A71561, 1-(3-phenylpropionyl)piperidine-3(R,S)-carboxylic acid [4-amino-1(S)-(benzothiazole-2-carbonyl)butyl]amide], the Ki (trypsin [1]) is listed as 30 nM and the Ki (Kgp) is listed as 0.9 nM.
For `NCCCC[C@H](NC(=O)c1ccccc1)C(=O)c1nc2ccccc2s1` [Compound 1, N-[(1S)-5-amino-1-(1,3-benzothiazole-2-carbonyl)pentyl]benzamide], the “prevention of gingipain-induced death of differentiated SHSY-5Y cells” value (from here on “prevention … of differentiated SHSY-5Y cells”) [2] was “prevents; also recorded: effective at preventing cell death”.
In the case of `NCCCC[C@H](NC(=O)C1CCCCC1)C(=O)c1nc2ccccc2s1` [Compound 2, N-[(1S)-5-amino-1-(1,3-benzothiazole-2-carbonyl)pentyl]cyclohexanecarboxamide], the IC50 (lysine gingipain (Kgp); read-out: Kgp IC50) is reported as 1 to 10 nM, the IC50 (trypsin [3]) is reported as 5000 nM and the “prevention … of differentiated SHSY-5Y cells” value [2] is reported as “prevents; also recorded: more effective; also recorded: effective at preventing cell death”. For the same molecule, the “brain levels of abeta 42 (ELISA)” value (abeta 42) was “resolved; also recorded: increase in abeta42 that was not apparently”.
For `NCCCC[C@H](NC(=O)[C@H]1CCCN(C(=O)CCc2ccccc2)C1)C(=O)c1nc2ccccc2s1` [Compound 3, (3S)—N-[(1S)-5-amino-1-(1,3-benzothiazole-2-carbonyl)pentyl]-1-(3-phenylpropanoyl)piperidine-3-carboxamide], the IC50 (lysine gingipain (Kgp); [4]) was 10 to 25 nM, the IC50 (lysine gingipain (Kgp); read-out: Kgp IC50) was 10 to 25 nM and the “prevention … of differentiated SHSY-5Y cells” value [2] was “does not”.
For `NCCCC[C@H](NC(=O)[C@@H]1CCCN(C(=O)CCc2ccccc2)C1)C(=O)c1nc2ccccc2s1` [Compound 4, (3R)—N-[(1S)-5-amino-1-(1,3-benzothiazole-2-carbonyl)pentyl]-1-(3-phenylpropanoyl)piperidine-3-carboxamide], the IC50 (lysine gingipain (Kgp); [4]) was 1 to 10 nM, the IC50 (lysine gingipain (Kgp); read-out: Kgp IC50) was 1 to 10 nM and the “prevention … of differentiated SHSY-5Y cells” value [2] was “prevents”. For the same molecule, the “prevention … of differentiated SHSY-5Y cells” value ([2]; listed as 2-(N—[N-(3-phenylpropanoyl)-(R)-nipecotinyl]-(R)-lysinyl)-benzothiazole) was “effective at preventing cell death”.
Work on `NCCCC[C@H](NC(=O)c1cccnc1)C(=O)c1nc2ccccc2s1` [Compound 30, N-[(1S)-5-amino-1-(1,3-benzothiazole-2-carbonyl)pentyl]pyridine-3-carboxamide] yielded an IC50 (lysine gingipain (Kgp); [4]) of 25 to 50 nM.
`NCCCC[C@H](NC(=O)C1CCCc2ccccc21)C(=O)c1nc2ccccc2s1` (stereo partly drawn) [Compound 31, N-[(1S)-5-amino-1-(1,3-benzothiazole-2-carbonyl)pentyl]tetralin-1-carboxamide] showed an IC50 (lysine gingipain (Kgp); [4]) of 10 to 25 nM.
In the case of `NCCCC[C@H](NC(=O)C1CCc2ccccc2C1)C(=O)c1nc2ccccc2s1` (stereo partly drawn) [Compound 32, N-[(1S)-5-amino-1-(1,3-benzothiazole-2-carbonyl)pentyl]tetralin-2-carboxamide], the IC50 (lysine gingipain (Kgp); [4]) is reported as 1 to 10 nM.
Work on `CC1(C(=O)N[C@@H](CCCCN)C(=O)c2nc3ccccc3s2)CCCCC1` [Compound 33, N-[(1S)-5-amino-1-(1,3-benzothiazole-2-carbonyl)pentyl]-1-methyl-cyclohexanecarboxamide] yielded an IC50 (lysine gingipain (Kgp); [4]) of 1 to 10 nM.
With `NCCCC[C@H](NC(=O)c1cncs1)C(=O)c1nc2ccccc2s1` [Compound 38, N-[(1S)-5-amino-1-(1,3-benzothiazole-2-carbonyl)pentyl]thiazole-5-carboxamide] the IC50 (lysine gingipain (Kgp); [4]) was 10 to 25 nM.
`NCCCC[C@H](NC(=O)c1nccs1)C(=O)c1nc2ccccc2s1` [Compound 39, N-[(1S)-5-amino-1-(1,3-benzothiazole-2-carbonyl)pentyl]thiazole-2-carboxamide] gave an IC50 (lysine gingipain (Kgp); [4]) of 50 to 100 nM.
With `NCCCC[C@H](NC(=O)c1cccc(=O)[nH]1)C(=O)c1nc2ccccc2s1` [Compound 40, N-[(1S)-5-amino-1-(1,3-benzothiazole-2-carbonyl)pentyl]-6-oxo-1H-pyridine-2-carboxamide] the IC50 (lysine gingipain (Kgp); [4]) was 25 to 50 nM.
Molecule `COC1(C(=O)N[C@@H](CCCCN)C(=O)c2nc3ccccc3s2)CCCCC1` [Compound 41, (S)—N-(6-amino-1-(benzo[d]thiazol-2-yl)-1-oxohexan-2-yl)-1-methoxycyclohexanecarboxamide] has an IC50 (lysine gingipain (Kgp); [4]) of 10 to 25 nM.
`NCCCC[C@H](NC(=O)C1CCCC1)C(=O)c1nccs1` [Compound 42, N-[(1S)-5-amino-1-(thiazole-2-carbonyl)pentyl]cyclopentanecarboxamide] gave an IC50 (lysine gingipain (Kgp); [4]) of 50 to 100 nM.
In the case of `NCCCC[C@H](NC(=O)C1CCCC1)C(=O)COc1c(F)c(F)cc(F)c1F` [Compound 43, N-[(1S)-5-amino-1-[2-(2,3,5,6-tetrafluorophenoxy)acetyl]pentyl]cyclo-pentanecarboxamide], the “protection of SHSY5Y cells from P. gingivalis-induced toxicity” value (SHSY5Y cells) is reported as “protects”, the IC50 (lysine gingipain (Kgp); [4]) is reported as ≤ 1 nM and the “lysine gingipain IC50 value” (lysine gingipain (Kgp); in words) is reported as “sub-nanomolar”. The IC50 (RgpB) was > 475 nM.
With `NCCCC[C@H](NC(=O)C1CCCC1)C(=O)c1ccccn1` [Compound 44, N-[(1S)-5-amino-1-(pyridine-2-carbonyl)pentyl]cyclopentanecarboxamide] the IC50 (lysine gingipain (Kgp); [4]) was > 250 nM.
